Active and inactive are the calls of the source. No cut-off for these calls is given here.
Assays:
[1] = tested on: Mus musculus; experiment: Toxicity in ICR-SCID mouse heart assessed as […] level at 100 mg/kg administered 3 times per week for 4 weeks measured after 24 hrs of last dose relative to untreated control; assay type: organism-based; design: dose 100 mg/kg; conditions: in vivo
[2] = tested on: NSCLC; experiment: Growth inhibition of human NSCLC cells assessed as ATP level after 4 days; assay type: functional, cell-based
[3] = Drug level in tumor of human BT474 cells xenografted in ICR-SCID mouse at 100 mg/kg, ip administered after 3 weeks tumor implantation measured after 12 hrs; assay type: ADME, organism-based, Neoplasm, BT-474; design: dose 100 mg/kg, route intraperitoneal; conditions: tumor (human BT474 xenograft), read-out: Drug uptake
[4] = Drug level in tumor of human BT474 cells xenografted in ICR-SCID mouse at 100 mg/kg, ip administered after 3 weeks tumor implantation measured after 48 hrs; assay type: ADME, organism-based, Neoplasm, BT-474; design: dose 100 mg/kg, route intraperitoneal; conditions: tumor (human BT474 xenograft), read-out: Drug uptake
[5] = Drug level in tumor of human BT474 cells xenografted in ICR-SCID mouse at 150 mg/kg, ip administered after 3 weeks tumor implantation measured after 12 hrs; assay type: ADME, organism-based, Neoplasm, BT-474; design: dose 150 mg/kg, route intraperitoneal; conditions: tumor (human BT474 xenograft), read-out: Drug uptake
[6] = Drug level in tumor of human BT474 cells xenografted in ICR-SCID mouse at 150 mg/kg, ip administered after 3 weeks tumor implantation measured after 24 hrs; assay type: ADME, organism-based, Neoplasm, BT-474; design: dose 150 mg/kg, route intraperitoneal; conditions: tumor (human BT474 xenograft), read-out: Drug uptake
[7] = Drug level in tumor of human BT474 cells xenografted in ICR-SCID mouse at 150 mg/kg, ip administered after 3 weeks tumor implantation measured after 48 hrs; assay type: ADME, organism-based, Neoplasm, BT-474; design: dose 150 mg/kg, route intraperitoneal; conditions: tumor (human BT474 xenograft), read-out: Drug uptake
[8] = tested on: Mus musculus; experiment: Hepatotoxicity in ICR-SCID mouse liver assessed as hematopoietic cell differentiation administered 3 times per week for 4 weeks measured after 24 hrs of last dose; assay type: toxicity, organism-based; conditions: in vivo
[9] = tested on: BT-474; experiment: Growth inhibition of human BT474 cells assessed as ATP level after 4 days; assay type: functional; conditions: BT-474, 96 h
[10] = tested on: NCI-N87; experiment: Growth inhibition of human NCI-N87 cells assessed as ATP level after 4 days; assay type: functional; conditions: NCI-N87, 96 h
[11] = Growth inhibition of human tarceva and iressa-resistant HCC827 cells assessed as ATP level after 4 days; assay type: functional; conditions: HCC827, 96 h
[12] = Growth inhibition of human A172 cells assessed as ATP level after 4 days; assay type: functional; conditions: A 172, 96 h
[13] = Solubility in water; assay type: physicochemical; conditions: buffer
[14] = tested on: HCC827; experiment: Induction of mutant Met degradation in human tarceva and iressa-resistant HCC827 cells at 20 to 500 nM by Western blotting; assay type: functional, cell-based
[15] = tested on: HCC827; experiment: Induction of mutant c-Raf degradation in human tarceva and iressa-resistant HCC827 cells at 20 to 500 nM by Western blotting; assay type: functional, cell-based
[16] = tested on: HCC827; experiment: Induction of mutant Cyclin D degradation in human tarceva and iressa-resistant HCC827 cells at 20 to 500 nM by Western blotting; assay type: functional, cell-based
[17] = tested on: NCI-H1975; experiment: Induction of mutant EGFR degradation in human tarceva and iressa-resistant NCI-H1975 cells at 20 to 500 nM by Western blotting; assay type: functional, cell-based
[18] = tested on: NCI-H1975; experiment: Induction of mutant c-Raf degradation in human tarceva and iressa-resistant NCI-H1975 cells at 20 to 500 nM by Western blotting; assay type: functional, cell-based
[19] = tested on: NCI-H1975; experiment: Induction of mutant Cdk4 degradation in human tarceva and iressa-resistant NCI-H1975 cells at 20 to 500 nM by Western blotting; assay type: functional, cell-based
[20] = species: Homo sapiens; experiment: Growth inhibition of human tarceva and iressa-resistant […] cells assessed as ATP level after 4 days; assay type: functional
[21] = Drug level in tumor of human BT474 cells xenografted in ICR-SCID mouse at 200 mg/kg, ip administered after 3 weeks tumor implantation measured after 6 hrs; assay type: ADME, organism-based, Neoplasm, BT-474; design: dose 200 mg/kg, route intraperitoneal; conditions: tumor (human BT474 xenograft), read-out: Drug uptake
[22] = Drug level in tumor of human BT474 cells xenografted in ICR-SCID mouse at 200 mg/kg, ip administered after 3 weeks tumor implantation measured after 12 hrs; assay type: ADME, organism-based, Neoplasm, BT-474; design: dose 200 mg/kg, route intraperitoneal; conditions: tumor (human BT474 xenograft), read-out: Drug uptake
[23] = tested on: BT-474; experiment: Induction of p-AKT degradation in human BT474 cells xenografted in ICR-SCID mouse at 100 mg/kg, ip administered after 3 weeks tumor implantation after 6 to 48 hrs by Western blotting; assay type: functional, organism-based; design: dose 100 mg/kg
[24] = tested on: Mus musculus; experiment: Hepatotoxicity in ICR-SCID mouse liver assessed as alanine aminotransferase level at 100 mg/kg administered 3 times per week for 4 weeks measured after 24 hrs of last dose relative to untreated control; assay type: toxicity, organism-based; design: dose 100 mg/kg; conditions: in vivo
[25] = tested on: Mus musculus; experiment: Hepatotoxicity in ICR-SCID mouse liver assessed as alanine aminotransferase level at 150 mg/kg administered 3 times per week for 4 weeks measured after 24 hrs of last dose relative to untreated control; assay type: toxicity, organism-based; design: dose 150 mg/kg; conditions: in vivo
[26] = tested on: Mus musculus; experiment: Hepatotoxicity in ICR-SCID mouse liver assessed as aspartate aminotransferase level at 100 mg/kg administered 3 times per week for 4 weeks measured after 24 hrs of last dose relative to untreated control; assay type: toxicity, organism-based; design: dose 100 mg/kg; conditions: in vivo
[27] = tested on: Mus musculus; experiment: Hepatotoxicity in ICR-SCID mouse liver assessed as alkaline phosphatase level at 150 mg/kg administered 3 times per week for 4 weeks measured after 24 hrs of last dose relative to untreated control; assay type: toxicity, organism-based; design: dose 150 mg/kg; conditions: in vivo

concentration at 12 h [3]: 5250 ng/g | concentration at 48 h [4]: 1500 ng/g | concentration at 12 h [5]: 6500 ng/g | concentration at 24 h [6]: 7930 ng/g | concentration at 48 h [7]: 4580 ng/g | GI50 [9]: 0.007 µM | solubility [13]: Insoluble | concentration at 6 h [21]: 6520 ng/g | concentration at 12 h [22]: 8920 ng/g
Structure (SMILES): O=C1OCC/C=C/CC/C=C/C(=N/OCC(=O)N2CCCCC2)Cc2c(Cl)c(O)cc(O)c21 [POCHOXIME A]
Activity [1]: 15.2 U/L | Activity [2]: Active | Activity [8]: Not Active | GI50 [10]: 0.004 µM | GI50 [11]: 0.031 µM | GI50 [12]: 0.042 µM | Activity [14]: Active | Activity [15]: Active | Activity [16]: Active | Activity [17]: Active | Activity [18]: Active | Activity [19]: Active | Activity [20]: Active | Activity [23]: Active | Activity [24]: 19.3 U/L | Activity [25]: 12 U/L | Activity [26]: 88.7 U/L | Activity [27]: 67.5 U/L
